ChEMBL document CHEMBL1136417, “Siphonols A-E: novel nitric oxide inhibitors from Orthosiphon stamineus of Indonesia” (Bioorg Med Chem Lett, 2003)

The compounds below were run on J774 (assay: Inhibitory activity against nitric oxide production in lipopolysaccharide (LPS)-activated macrophage -like J774.1 cell). Settings: Mus musculus, J774.
Assay type: functional, cell-based, Mus musculus

| Compound | IC50 [µM] |
| --- | --- |
| CC(=O)O[C@H]1[C@@H](OC(C)=O)C(C)(C)C2C[C@@H](OC(C)=O)[C@@]3(O)C(=O)[C@@](C)(C=O)C[C@@H](OC(=O)c4ccccc4)C3[C@@]2(CO)[C@H]1OC(=O)c1ccccc1 (stereo partly drawn) | 23 |
| C=C[C@@]1(C)C[C@@H](OC(=O)c2ccccc2)C2[C@]3(COC(C)=O)C(C[C@@H](O)[C@@]2(O)C1=O)C(C)(C)[C@H](OC(C)=O)[C@H](OC(C)=O)[C@@H]3OC(=O)c1ccccc1 (stereo partly drawn) | 46.5 |
| C[C@@H]1C[C@H]2[C@@H]3CCC4=CC(=O)C=C[C@]4(C)[C@@]3(F)[C@@H](O)C[C@]2(C)[C@@]1(O)C(=O)CO [DEXAMETHASONE] | 170 |
| CNC(=N)NCCC[C@H](N)C(=O)O [TILARGININE] | 26 |

Now from value to compound:

| IC50 [µM] | Compound |
| --- | --- |
| 17.3 | C=C[C@@]1(C)C[C@@H](OC(=O)c2ccccc2)C2[C@]3(CO)C(C[C@@H](O)[C@@]2(O)C1=O)C(C)(C)[C@H](OC(C)=O)[C@H](OC(C)=O)[C@@H]3OC(=O)c1ccccc1 (stereo partly drawn) |
| 22.9 | C=C[C@@]1(C)C[C@@H](OC(=O)c2ccccc2)C2[C@]3(CO)C(C[C@@H](OC(C)=O)[C@@]2(O)C1=O)C(C)(C)[C@H](OC(C)=O)[C@H](O)[C@@H]3OC(=O)c1ccccc1 (stereo partly drawn) |
| 10.8 | C=C[C@@]1(C)C[C@@H](OC(=O)c2ccccc2)C2[C@]3(CO)C(C[C@@H](OC(C)=O)[C@@]2(O)C1=O)C(C)(C)[C@H](OC(C)=O)[C@H](OC(C)=O)[C@@H]3OC(=O)c1ccccc1 (stereo partly drawn) |

Same assay, conditions: j774

| IC50 [µM] | Compound |
| --- | --- |
| 27.8 | POLYMYXIN B |
